This is an account of results in patent US9453026B2, “ACC inhibitors and uses thereof” (Gilead Apollo, Inc., priority 2011, dated 2016).

Test [1] has as its target ACC1 (Homo sapiens, UniProt Q13085). The test is described as follows: In vitro ACC1 inhibition assay (ADP-Glo). The following applies: read-out: ACC1. Type of test: biochemical. The method, then: An exemplary procedure for the in vitro ACC inhibition assay, which can be used to determine the inhibitory action of compounds of the invention toward either ACC1 or ACC2, follows. The ADP-Glo™ Kinase Assay kit from Promega was used. The ADP-Glo™ Kinase Assay is a luminescent ADP detection assay to measure enzymatic activity by quantifying the amount of ADP produced during an enzyme reaction. The assay is performed in two steps; first, after the enzyme reaction, an equal volume of ADP-Glo™ Reagent is added to terminate the reaction and deplete the remaining ATP. Second, the Kinase Detection Reagent is added to simultaneously convert ADP to ATP and allow the newly synthesized ATP to be measured using a luciferase/luciferin reaction. Luminescence can be correlated to ADP concentrations by using an ATP-to-ADP conversion curve. The detailed procedure is as follows. 50 μL of the compound being tested (600 uM in DMSO) was added to a 384-well dilution plate. The compound was diluted 1:3 in succession in DMSO for each row for 11 wells. 0.5 μL ACC2 working solution was added to 384-well white Optiplate assay plate. 0.5 μL diluted compound solution in each column from step 2 to assay plate, each row containing 2 replicates. […] The plates were incubated at room temperature for 15 minutes. 5 μL substrate working solution was added to each well to initiate reaction. […] Plates were incubated at room temperature for 60 minutes. 10 μL ADP glo reagent was added. Plates were incubated at room temperature for 40 minutes. 20 μL kinase detection reagent was added.
Data for each concentration, as well as the positive and negative controls were averaged, and the standard deviation calculated. Percent inhibition was calculated by the formula: 100× (average negative control−compound)/(average negative control−average positive control). The IC50 for each compound was calculated by fitting the data with a non-linear regression equation: Y=Bottom+(Top-Bottom)/(1+10^((Log IC50−X)*HillSlope)), where X is the log of compound concentration and Y is percent inhibition.
The compound numbers correspond to the compound numbers in Table 1.
For orientation: In ADP-Glo the light output rises with the ADP produced.

Test [2] deals with ACC2 (Homo sapiens, UniProt O00763). In words: In vitro ACC2 inhibition assay (ADP-Glo). Type of test: biochemical. The note with it: read-out: ACC2. The method, boiled down:
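Enzyme (human ACC1 or ACC2) and compound, serially diluted 1:3 over 11 points from a 600 uM DMSO stock, were preincubated 15 min before substrate addition.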

Chain of ACC2 (O00763 whole entry, species assumed): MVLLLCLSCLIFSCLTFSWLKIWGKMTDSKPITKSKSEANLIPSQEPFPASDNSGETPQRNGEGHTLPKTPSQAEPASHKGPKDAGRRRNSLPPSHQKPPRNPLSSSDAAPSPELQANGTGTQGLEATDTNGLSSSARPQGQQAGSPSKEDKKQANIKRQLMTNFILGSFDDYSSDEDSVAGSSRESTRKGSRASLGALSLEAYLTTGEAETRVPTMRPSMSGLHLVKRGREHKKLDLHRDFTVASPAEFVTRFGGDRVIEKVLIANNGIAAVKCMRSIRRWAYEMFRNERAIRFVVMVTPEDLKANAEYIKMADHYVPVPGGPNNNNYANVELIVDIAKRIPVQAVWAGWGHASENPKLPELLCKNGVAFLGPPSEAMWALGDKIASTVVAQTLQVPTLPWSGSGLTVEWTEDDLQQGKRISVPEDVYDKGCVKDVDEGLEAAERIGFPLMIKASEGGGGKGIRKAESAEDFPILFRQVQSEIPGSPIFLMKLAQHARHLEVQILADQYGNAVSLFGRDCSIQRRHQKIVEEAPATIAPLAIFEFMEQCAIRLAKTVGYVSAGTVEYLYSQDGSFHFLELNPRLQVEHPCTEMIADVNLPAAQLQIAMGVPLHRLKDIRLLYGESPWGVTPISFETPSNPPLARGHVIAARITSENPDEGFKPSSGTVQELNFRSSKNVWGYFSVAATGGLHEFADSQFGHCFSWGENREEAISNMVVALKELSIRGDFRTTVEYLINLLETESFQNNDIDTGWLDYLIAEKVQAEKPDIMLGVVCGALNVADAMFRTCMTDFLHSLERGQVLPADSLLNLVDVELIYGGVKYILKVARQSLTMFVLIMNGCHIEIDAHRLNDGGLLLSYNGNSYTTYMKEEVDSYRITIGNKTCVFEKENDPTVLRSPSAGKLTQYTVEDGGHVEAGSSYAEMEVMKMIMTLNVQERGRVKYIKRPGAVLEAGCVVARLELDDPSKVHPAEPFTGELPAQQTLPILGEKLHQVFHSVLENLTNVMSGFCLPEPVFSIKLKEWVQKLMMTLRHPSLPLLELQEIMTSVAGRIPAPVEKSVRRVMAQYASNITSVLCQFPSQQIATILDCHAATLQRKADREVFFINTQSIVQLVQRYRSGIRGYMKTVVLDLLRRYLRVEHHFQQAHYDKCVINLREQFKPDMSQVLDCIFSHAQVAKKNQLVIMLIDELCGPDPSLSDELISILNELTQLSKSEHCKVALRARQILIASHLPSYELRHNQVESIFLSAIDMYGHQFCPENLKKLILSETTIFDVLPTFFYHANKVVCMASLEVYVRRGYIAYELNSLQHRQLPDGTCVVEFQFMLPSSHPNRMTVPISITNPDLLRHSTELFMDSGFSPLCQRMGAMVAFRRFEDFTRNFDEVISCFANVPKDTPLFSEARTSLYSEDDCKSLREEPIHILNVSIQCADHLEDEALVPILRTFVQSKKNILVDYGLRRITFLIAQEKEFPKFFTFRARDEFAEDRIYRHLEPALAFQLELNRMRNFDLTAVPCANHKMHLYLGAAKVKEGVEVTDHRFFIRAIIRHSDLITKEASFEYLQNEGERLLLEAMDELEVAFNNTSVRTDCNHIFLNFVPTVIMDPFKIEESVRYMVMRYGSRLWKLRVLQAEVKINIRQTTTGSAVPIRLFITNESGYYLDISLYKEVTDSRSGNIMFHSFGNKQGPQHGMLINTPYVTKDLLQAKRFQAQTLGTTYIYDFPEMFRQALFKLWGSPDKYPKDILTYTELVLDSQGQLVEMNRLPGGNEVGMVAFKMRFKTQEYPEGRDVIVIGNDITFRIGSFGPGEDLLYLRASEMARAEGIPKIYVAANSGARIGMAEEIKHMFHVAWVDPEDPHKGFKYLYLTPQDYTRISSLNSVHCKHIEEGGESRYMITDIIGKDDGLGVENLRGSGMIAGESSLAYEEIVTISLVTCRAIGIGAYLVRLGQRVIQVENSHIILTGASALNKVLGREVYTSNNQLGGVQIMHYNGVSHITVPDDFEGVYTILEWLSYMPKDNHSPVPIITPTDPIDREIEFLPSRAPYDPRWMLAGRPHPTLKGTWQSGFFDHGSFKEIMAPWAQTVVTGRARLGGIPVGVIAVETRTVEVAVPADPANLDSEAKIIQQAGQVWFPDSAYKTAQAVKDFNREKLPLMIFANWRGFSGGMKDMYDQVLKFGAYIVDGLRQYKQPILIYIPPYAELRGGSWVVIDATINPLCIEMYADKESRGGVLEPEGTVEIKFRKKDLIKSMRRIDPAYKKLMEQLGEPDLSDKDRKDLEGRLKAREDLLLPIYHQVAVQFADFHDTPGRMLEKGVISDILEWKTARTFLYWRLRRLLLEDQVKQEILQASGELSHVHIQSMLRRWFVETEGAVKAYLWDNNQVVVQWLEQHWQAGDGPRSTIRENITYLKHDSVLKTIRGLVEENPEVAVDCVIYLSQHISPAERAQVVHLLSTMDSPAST

Regarding `CCOc1ccccc1[C@H](Cn1c(=O)n(C(C)(C)C(=O)O)c(=O)c2c(C)c(-c3ncco3)sc21)OC(C)C` [I-177, 2-[1-[(2R)-2-(2-ethoxyphenyl)-2-(propan-2-yloxy)ethyl]-5-methyl-6-(1,3-oxazol-2-yl)-2,4-dioxo-1H,2H,3H,4H-thieno[2,3-d]pyrimidin-3-yl]-2-methylpropanoic acid], the IC50 in test [1] and in test [2] was less than 100 nM in each case.

`COc1ccccc1[C@H](Cn1c(=O)n(C(C)(C)C(N)=O)c(=O)c2c(C)c(-c3ncco3)sc21)OCC1CCOCC1` [I-260, 2-[1-[(2R)-2-(2-methoxyphenyl)-2-(oxan-4-ylmethoxy)ethyl]-5-methyl-6-(1,3-oxazol-2-yl)-2,4-dioxo-1H,2H,3H,4H-thieno[2,3-d]pyrimidin-3-yl]-2-methylpropanamide]: the IC50 in test [1] and in test [2] was less than 100 nM in each case.

For `Cc1c(-c2ncco2)sc2c1c(=O)n(C(C)(C)C(=O)O)c(=O)n2CC(Oc1ccccc1)c1ccccc1` (stereo in doubt) [I-143, 2-methyl-2-[5-methyl-6-(1,3-oxazol-2-yl)-2,4-dioxo-1-[(2S)-2-phenoxy-2-phenylethyl]-1H,2H,3H,4H-thieno[2,3-d]pyrimidin-3-yl]propanoic acid], the IC50 in test [1] and in test [2] was less than 1000 nM throughout.

Consider `COc1ccccc1[C@H](Cn1c(=O)n(C(C)(C)C(=O)N2CC(O)C2)c(=O)c2c(C)c(-c3ncco3)sc21)OC(C)C` [I-241, 3-[1-(3-hydroxyazetidin-1-yl)-2-methyl-1-oxopropan-2-yl]-1-[(2R)-2-(2-methoxyphenyl)-2-(propan-2-yloxy)ethyl]-5-methyl-6-(1,3-oxazol-2-yl)-1H,2H,3H,4H-thieno[2,3-d]pyrimidine-2,4-dione], for which the IC50 in test [1] and in test [2] was less than 100 nM throughout.

For `CCOC(=O)c1sc2c(c1C)c(=O)n(C(C)(C)C(N)=O)c(=O)n2C[C@H](OC(C)C)c1ccccc1` [I-115, ethyl 3-(1-carbamoyl-1-methylethyl)-5-methyl-2,4-dioxo-1-[(2R)-2-phenyl-2-(propan-2-yloxy)ethyl]-1H,2H,3H,4H-thieno[2,3-d]pyrimidine-6-carboxylate], the IC50 in test [1] and in test [2] was less than 1000 nM in each case.

As to `CCOC(=O)c1sc2c(c1C)c(=O)n(CC(=O)O)c(=O)n2CCc1ccccc1Cl` [I-31, 2-[1-[2-(2-chlorophenyl)ethyl]-6-(ethoxycarbonyl)-5-methyl-2,4-dioxo-1H,2H,3H,4H-thieno[2,3-d]pyrimidin-3-yl]acetic acid], the IC50 in test [1] and in test [2] was less than 5000 nM in each case.

Take `CCOC(=O)c1sc2c(c1C)c(=O)n(CCc1nnn[nH]1)c(=O)n2CCc1ccccc1` [I-61]: the IC50 in test [1] and in test [2] was less than 5000 nM in each case.

`COc1ccccc1[C@H](Cn1c(=O)n(CC(C)(C)O)c(=O)c2c(C)c(-c3ncco3)sc21)OC1CCOCC1` [I-287, 3-(2-hydroxy-2-methylpropyl)-1-[(2R)-2-(2-methoxyphenyl)-2-(oxan-4-yloxy)ethyl]-5-methyl-6-(1,3-oxazol-2-yl)-1H,2H,3H,4H-thieno[2,3-d]pyrimidine-2,4-dione]: the IC50 in test [1] and in test [2] was less than 100 nM throughout.

Regarding `Cc1c(-c2ncco2)sc2c1c(=O)n(C(C)(C)C(=O)O)c(=O)n2C[C@H](OC1CCC(=O)CC1)c1ccccc1` [I-145, (R)-2-methyl-2-(5-methyl-6-(oxazol-2-yl)-2,4-dioxo-1-(2-((4-oxocyclohexyl)oxy)-2-phenylethyl)-1,2-dihydrothieno[2,3-d]pyrimidin-3(4H)-yl)propanoic acid], the figures for the IC50 in test [1] and in test [2] were less than 100 nM and less than 1000 nM, respectively.

As for `COc1ccccc1[C@H](Cn1c(=O)n(C(C)(C)C(=O)O)c(=O)c2c(C)c(-c3ncco3)sc21)O[C@H]1CC[C@H](O)CC1` [I-277, 2-[1-[(2R)-2-[(4-hydroxycyclohexyl)oxy]-2-(2-methoxyphenyl)ethyl]-5-methyl-6-(1,3-oxazol-2-yl)-2,4-dioxo-1H,2H,3H,4H-thieno[2,3-d]pyrimidin-3-yl]-2-methylpropanoic acid], the IC50 in test [1] and in test [2] was less than 100 nM each time.

Turning to `COc1ccccc1[C@H](Cn1c(=O)n(C(C)(C)CO)c(=O)c2c(C)c(-c3ncco3)sc21)OC1CCOCC1` [I-290, 3-(1-hydroxy-2-methylpropan-2-yl)-1-[(2R)-2-(2-methoxyphenyl)-2-(oxan-4-yloxy)ethyl]-5-methyl-6-(1,3-oxazol-2-yl)-1H,2H,3H,4H-thieno[2,3-d]pyrimidine-2,4-dione], the IC50 in test [1] and in test [2] was less than 100 nM each time.

On to `CCc1ccccc1[C@H](Cn1c(=O)n(C(C)(C)C(=O)O)c(=O)c2c(C)c(-c3ncco3)sc21)OCCO` [I-255, 2-[1-[(2R)-2-(2-ethylphenyl)-2-(2-hydroxyethoxy)ethyl]-5-methyl-6-(1,3-oxazol-2-yl)-2,4-dioxo-1H,2H,3H,4H-thieno[2,3-d]pyrimidin-3-yl]-2-methylpropanoic acid], for which the IC50 in test [1] and in test [2] was less than 100 nM in each case.

`COc1ccccc1[C@H](Cn1c(=O)n(CC(=O)O)c(=O)c2c(C)c(-c3ncco3)sc21)OC1CCOCC1` [I-286, 2-[1-[(2R)-2-(2-methoxyphenyl)-2-(oxan-4-yloxy)ethyl]-5-methyl-6-(1,3-oxazol-2-yl)-2,4-dioxo-1H,2H,3H,4H-thieno[2,3-d]pyrimidin-3-yl]acetic acid]: the IC50 in test [1] and in test [2] was less than 100 nM throughout.

On to `CCOC(=O)c1sc2c(c1C)c(=O)n(C(C)(C)C(=O)O)c(=O)n2CCc1ccccc1OC` [I-93, 2-[6-(ethoxycarbonyl)-1-[2-(2-methoxyphenyl)ethyl]-5-methyl-2,4-dioxo-1H,2H,3H,4H-thieno[2,3-d]pyrimidin-3-yl]-2-methylpropanoic acid], for which the IC50 in test [1] and in test [2] was less than 1000 nM throughout.

Take `COc1ccccc1[C@H](Cn1c(=O)n(C(C)(C)C(=O)O)c(=O)c2c(C)c(-c3ncco3)sc21)OC[C@@H](C)O` [I-258, 2-[1-[(2R)-2-[(2R)-2-hydroxypropoxy]-2-(2-methoxyphenyl)ethyl]-5-methyl-6-(1,3-oxazol-2-yl)-2,4-dioxo-1H,2H,3H,4H-thieno[2,3-d]pyrimidin-3-yl]-2-methylpropanoic acid]: the IC50 in test [1] and in test [2] was less than 100 nM in each case.

In the case of `CCOC(=O)c1sc2c(c1C)c(=O)n(CCO)c(=O)n2CCc1ccccc1` [I-1], the IC50 in test [1] is less than 5000 nM; in test [2], 5000 to 20000 nM.

As to `Cc1c(-c2ncco2)sc2c1c(=O)n(C(C)(C)C(=O)O)c(=O)n2C[C@H](O[C@H]1CC[C@H](O)CC1)c1ccccc1OC(C)C` [I-294, 2-(1-((R)-2-(((1r,4R)-4-hydroxycyclohexyl)oxy)-2-(2-isopropoxyphenyl)ethyl)-5-methyl-6-(oxazol-2-yl)-2,4-dioxo-1,2-dihydrothieno[2,3-d]pyrimidin-3(4H)-yl)-2-methylpropanoic acid], the IC50 in test [1] and in test [2] was less than 100 nM in each case.

With `CCOC(=O)c1sc2c(c1C)c(=O)n(CC(=O)O)c(=O)n2CC(O)c1ccccc1` (centres unmarked) [I-60, 2-[6-(ethoxycarbonyl)-1-(2-hydroxy-2-phenylethyl)-5-methyl-2,4-dioxo-1H,2H,3H,4H-thieno[2,3-d]pyrimidin-3-yl]acetic acid], the IC50 in test [1] and in test [2] was less than 5000 nM each time.

Consider `CCOC(=O)c1sc2c(c1C)c(=O)n(Cc1nnn[nH]1)c(=O)n2CCc1ccccc1` [I-45, ethyl 5-methyl-2,4-dioxo-1-(2-phenylethyl)-3-(1H-1,2,3,4-tetrazol-5-ylmethyl)-1H,2H,3H,4H-thieno[2,3-d]pyrimidine-6-carboxylate], for which the IC50 in test [1] and in test [2] was less than 5000 nM throughout.

As to `Cc1c(-c2ncco2)sc2c1c(=O)n(C(C)(C)C(=O)O)c(=O)n2C[C@H](OC1CCC(O)CC1)c1ccccc1` (stereo partly drawn) [I-164, 2-[1-[(2R)-2-[(4-hydroxycyclohexyl)oxy]-2-phenylethyl]-5-methyl-6-(1,3-oxazol-2-yl)-2,4-dioxo-1H,2H,3H,4H-thieno[2,3-d]pyrimidin-3-yl]-2-methylpropanoic acid], the IC50 in test [1] and in test [2] was less than 100 nM each time.

Regarding `CCOC(=O)c1sc2c(c1C)c(=O)n(CC(=O)O)c(=O)n2CCc1ccccc1` [I-13], the IC50 in test [1] and in test [2] was less than 5000 nM throughout.

Take `Cc1c(-c2ncco2)sc2c1c(=O)n(C(C)(C)C(=O)O)c(=O)n2C[C@H](O[C@H]1CC[C@](C)(O)CC1)c1ccccc1` [I-163, 2-(1-((R)-2-(((1r,4R)-4-hydroxy-4-methylcyclohexyl)oxy)-2-phenylethyl)-5-methyl-6-(oxazol-2-yl)-2,4-dioxo-1,2-dihydrothieno[2,3-d]pyrimidin-3(4H)-yl)-2-methylpropanoic acid]: the IC50 in test [1] and in test [2] was less than 1000 nM each time.
